Results: patent US20040127577A1 (priority 2002, published 2004)
Where “and” joins values, the source holds several entries; their conditions need not be identical. Identical values can stand only once. Like-named read-outs stand apart in the source and are kept apart here.

How the values were obtained:
SOD1 transgenic mice [1] = conditions: mouse, in vivo
Protocol: (§1) The drugs were administered by drinking water starting at 60 days of age. The daily dosages were calculated based on a daily water intake of 6 ml. Fresh solutions were prepared once a week with the total consumed volume measured in order to ensure a constant daily and weekly dose. […] The study was done blindly, meaning that the treatment and the preparation of the drugs were conducted by separate individuals.
(§2) Mice were observed daily (including weekends) and weighed weekly. Motor performance was assessed from 40 days of age using the rotarod apparatus to measure the night activity of the mice from 8 p.m.-8 a.m. (LMTB, Berlin). The activity of the animals was recorded individually by a computerized system and assessed daily, including weekends. For statistical evaluation, the rotarod activity was normalized to the mean activity of each animal from day 40 to day 60.
The clinical condition of the mice was monitored daily starting at 40 days. The onset of clinical signs was scored by examining the mice for tremors and/or shaking of the limbs, and the position of one or both hind limbs (hanging rather than splaying out) when the mice were suspended in the air by their tail. The age of clinical onset was determined by the age (days) at which loss of splay or tremors of hind limbs were observed. Examining the mice for the loss of righting reflex determined the end stage of the disease. […]

SOD1 transgenic mice [2] = conditions: for Mean Survival: drinking water from 60 days of age, N=15
Protocol: (§3) Another group of 15 mice served as controls.
as §1
The clinical condition of the mice was monitored daily starting at 40 days. The onset of clinical signs was scored by examining the mice for tremors and/or shaking of the limbs, and the position of one or both hind limbs (hanging rather than splaying out) when the mice were suspended in the air by their tail. The age of clinical onset was determined by the age (days) at which loss of splay or tremors of hind limbs were observed. Examining the mice for the loss of righting reflex determined the end stage of the disease. The mice were sacrificed if they could not right themselves within 30 seconds when placed on either side on a flat surface. This decision was made by an independent veterinarian as requested by the animal protocol. The treatment protocol was approved by the Regierungspräsident Tübingen (35/9185.81-3). The treatment and clinical evaluation were conducted by separate individuals, and thus the neurological signs for determining onset and end stage of disease were scored in a blinded manner.
(§4) Data are expressed as the mean +/−standard error of the mean (SEM). Rotarod testing and weight were compared by analysis of variance (ANOVA). Survival data were analysed by the Mantel-Cox proportional hazard model. Statistical significance was tested by one-way ANOVA followed by post-hoc Student-Newman-Keuls comparison with the SPSS-PC software program (SPSS, Chicago Ill.).

SOD1 transgenic mice [3] = assay: Running wheel (rotarod) night activity of SOD1 transgenic mice; format: in vivo; design: unit not given here
Protocol: as §3, §1, §2, §4

C#CCN[C@@H]1CCc2ccccc21 [rasagiline, R(+)-N-propargyl-1-aminoindan]
signs of overt toxicity (SOD1 transgenic mice [1]): did not observe any signs of overt toxicity | Mean Survival (SOD1 transgenic mice [2]; rasagiline 0.5 mg/kg per day): 224 days and 223.8667 days | Mean Survival (SOD1 transgenic mice [2]; rasagiline 2.0 mg/kg per day): 239.8667 days and 239.8677 days | increase of life span vs controls (SOD1 transgenic mice [2]; rasagiline 2.0 mg/kg per day, p<0.001): 29 days | running wheel activity (SOD1 transgenic mice [3]; rasagiline 0.5 mg/kg, Weeks 9-12): 10087 | running wheel activity (SOD1 transgenic mice [3]; rasagiline 0.5 mg/kg, Weeks 13-16): 9037.14 | running wheel activity (SOD1 transgenic mice [3]; rasagiline 0.5 mg/kg, Weeks 17-20): 8124.12 | running wheel activity (SOD1 transgenic mice [3]; rasagiline 0.5 mg/kg, Weeks 21-24): 6070.08 | running wheel activity (SOD1 transgenic mice [3]; rasagiline 0.5 mg/kg, Weeks 25-28): 4236.96 | running wheel activity (SOD1 transgenic mice [3]; rasagiline 0.5 mg/kg, Weeks 29-36): 1196.69 | running wheel activity (SOD1 transgenic mice [3]; rasagiline 2.0 mg/kg, Weeks 9-12): 11056 | running wheel activity (SOD1 transgenic mice [3]; rasagiline 2.0 mg/kg, Weeks 13-16): 9999.44 | running wheel activity (SOD1 transgenic mice [3]; rasagiline 2.0 mg/kg, Weeks 17-20): 8787.09 | running wheel activity (SOD1 transgenic mice [3]; rasagiline 2.0 mg/kg, Weeks 21-24): 7873.22 | running wheel activity (SOD1 transgenic mice [3]; rasagiline 2.0 mg/kg, Weeks 25-28): 5902.76 | running wheel activity (SOD1 transgenic mice [3]; rasagiline 2.0 mg/kg, Weeks 29-36): 2147.29

Nc1nc2ccc(OC(F)(F)F)cc2s1 [riluzole, 2-amino-6-trifluoromethoxy benzothiazole]
running wheel activity (SOD1 transgenic mice [3]; riluzole 30 mg/kg, Weeks 9-12): 9729.58 | running wheel activity (SOD1 transgenic mice [3]; riluzole 30 mg/kg, Weeks 13-16): 7556.57 | running wheel activity (SOD1 transgenic mice [3]; riluzole 30 mg/kg, Weeks 17-20): 7033.85 | running wheel activity (SOD1 transgenic mice [3]; riluzole 30 mg/kg, Weeks 21-24): 4687.05 | running wheel activity (SOD1 transgenic mice [3]; riluzole 30 mg/kg, Weeks 25-28): 2696.11 | running wheel activity (SOD1 transgenic mice [3]; riluzole 30 mg/kg, Weeks 29-36): 1249.13
